This is an account of results in patent publication US7691567B2, “Methods and compositions relating to fortilin, an anti-apoptotic molecule, and modulators of fortilin” (Board of Regents, the University of Texas System, priority 2000, dated 2010).

“Also recorded” adds a separate entry of the source.

One assay has as its system HeLa cells. As to the kind of experiment: Cell death assay: etoposide-induced apoptosis in transfected HeLa cells (apoptotic index). The assay is classed as cell-based. Here is the method:
Cell death assay: The experiment was performed in duplicate and repeated at least three times. A total of […] HeLa cells were seeded in each well of a 4-well Lab-Teck™ chamber slides (Nalge Nunc International), and transfected with pFLAG containing Fortilin or other control cDNAs, using FuGENE6 (Roche). Twenty-four hours after the transfection, the cells were challenged by 5 μg/mL etoposide for 12 hours. Cells were stained for the FLAG-epitope using anti-FLAG antibody (M2, Sigma Co) and anti-mouse IgG conjugated to Rhodamine Red X (Jackson ImmunoResearch Laboratories). The nuclei were stained with DAPI (4,6-Diamidino-2-phenylindole, Sigma Co). Cells were then examined under a Zeiss AXIOSKOP fluorescent microscope (Carl Zeiss Ltd.), using appropriate filter sets. Cells that emitted red fluorescence were evaluated for their nuclear morphology. Condensed or fragmented nuclei were counted as apoptotic. An apoptotic index was then calculated as the number of red cells with apoptotic nuclear morphology divided by the number of total red cells counted and multiplied by 100.
Statistical analysis: For the analysis of statistical significance of apoptotic indices among cells transfected with different plasmids, Dunnett's T tests were performed. In all cases, the confidence intervals were 0.95 with the alpha value of 0.05. For the statistical evaluation of the significant linear trend between the amount of plasmids used for the transfection and apoptotic indices, ANOVA (Analysis of Variance) regression analysis was employed. […] For the analysis of statistical significance of possible correlation between the degree of malignancy and the indices of Fortilin immunoreactivity, Dunnett's multiple range tests were performed.

For the next assay, the target named is p53 (Homo sapiens, UniProt P04637). As to the kind of experiment: GST-Fortilin in vitro pull-down of labeled p53. The assay is classed as binding. The note with it: 35S-labeled p53, 4° C. 90 minutes. As for the experimental part:
(§1) Studies were initiated to determine whether p53 and Fortilin specifically interact. Either recombinant GST-Fortilin or GST only were incubated at 4° C. for 90 minutes with in vitro translated, [^35S-Met]-labeled p53, MCL1 or Bcl-xL, in Binding Buffer (50 mM HEPES, pH7.5, 70 mM KCl, 0.5 mM ATP, 5 mM MgSO4, 1 mM DTT, 0.001% NP40, 50 μM MG132, 2 μg/mL BSA, Aporotinin, PMSF and protease inhibitor cocktail (Sigma Co., St. Louis, Mo.)). The GST or GST-Fortilin was then pulled down with Glutathione Sepharose 4B beads (Amersham-Pharmacia Biotechnologies). Formed complexes were extensively washed and eluted into SDS loading buffer. The eluted proteins were subjected to SDS-PAGE in duplicate. The first SDS gel was stained with Commassie Blue to confirm the successful immunoprecipitation of GST and GST-Fortilin (IP). […] Thus, there is a specific interaction present between Fortilin and p53, between Fortilin and MCL1.

For assay [1], the target named is MCL1 (Homo sapiens, UniProt Q07820). As to the kind of experiment: GST-Fortilin in vitro pull-down of labeled MCL1. The note with it: 35S-labeled MCL1. The assay is classed as binding. As for the experimental part: as §1
Sequence of MCL1 (Homo sapiens, UniProt Q07820) (Q07820 whole entry): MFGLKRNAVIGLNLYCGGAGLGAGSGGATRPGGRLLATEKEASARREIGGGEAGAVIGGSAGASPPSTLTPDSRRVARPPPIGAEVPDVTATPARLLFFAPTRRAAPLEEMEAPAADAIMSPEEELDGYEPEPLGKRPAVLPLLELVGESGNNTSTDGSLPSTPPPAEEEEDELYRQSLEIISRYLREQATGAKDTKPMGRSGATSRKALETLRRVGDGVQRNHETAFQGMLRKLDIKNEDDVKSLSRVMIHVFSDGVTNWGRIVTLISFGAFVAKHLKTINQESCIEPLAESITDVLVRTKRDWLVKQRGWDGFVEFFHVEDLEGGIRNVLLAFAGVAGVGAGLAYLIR
A further assay concerns the target Bcl-xL (Homo sapiens, UniProt Q07817). As to the kind of experiment: GST-Fortilin in vitro pull-down of labeled Bcl-xL. The note with it: 35S-labeled Bcl-xL. The assay is classed as binding. Here is the method:
as §1

Assay [2] concerns p53 transactivation of Bax gene. As to the kind of experiment: p53 transactivation of Bax gene, p-Bax-RE-Luc luciferase reporter in H1299 cells. The class given is cell-based. Here is the method: The ability of Fortilin to interfere with transactivation of the Bax gene by p53 was investigated. Non-small cell lung cancer cell line H1299 cells were transfected with p53-pcDNA3, LacZ-pFLAG, p-Bax-RE-Luc (a plasmid encoding the Luciferase gene under the control of the Bax responsive element) and pFLAG vector encoding Bcl-2, MCL1, Fortilin or truncated Fortilin as indicated in FIG. 6. Twenty-four hours after the transfection, luciferase activity was measured and normalized to the β-galactosidase activity, the latter representing transfection efficiency.
Next, studies were conducted to determine whether the inhibition was dosage dependent. H1299 cells were transfected with p53-pcDNA3, LacZ-pFLAG, p-Bax-RE-Luc and various amount of Fortilin-pFLAG. The total amount of DNA added was adjusted by the addition of empty pFLAG vector. Twenty-four hours after the transfection, luciferase activity was measured and normalized to the β-galactosidase activity.

Another assay addresses T1, Bak (Homo sapiens, UniProt Q16611).
T1 sequence (Q16611 1-211): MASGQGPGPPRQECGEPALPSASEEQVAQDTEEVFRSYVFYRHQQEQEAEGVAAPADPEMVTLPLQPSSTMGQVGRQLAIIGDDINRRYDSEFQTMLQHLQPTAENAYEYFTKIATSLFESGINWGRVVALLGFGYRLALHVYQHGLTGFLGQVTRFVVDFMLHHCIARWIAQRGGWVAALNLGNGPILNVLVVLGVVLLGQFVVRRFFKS
Description: In vitro pull-down assay of Fortilin-HA with Bak. The class given is binding. Particulars: in vitro translated proteins, anti-HA pull-down.

The next assay concerns the target Bax (Homo sapiens, UniProt Q07812). Description: In vitro pull-down assay of Fortilin-HA with Bax. Particulars: in vitro translated proteins, anti-HA pull-down. The class given is binding.
In a further assay the test system is caspase 3-like activity. Description: Assay of caspase 3-like activity in U2OS stable transfectants (Z-DEVD-AFC). The class given is cell-based. Here is the method:
Assay of caspase 3-like activity. Approximately 2×10^6 U2OS stable transfectants, either expressing Fortilin (U2OS.F) or harboring empty expression vector (U2OS.E), both of which have been characterized above, were challenged either with dimethyl sulfoxide (DMSO) (vehicle) or with etoposide at a final concentration of 10 μg/mL for 48 hours. Caspase 3-like activity was then determined as previously described (Mannick et al., 1999). In brief, cytosolic proteins were extracted in hypotonic cell lysis buffer (25 mM HEPES, pH 7.5, 5 mM MgCl2, 5 mM EDTA, 5 mM dithiothreitol, 0.05% phenylmethylsulfonyl fluoride [PMSF]; all from Sigma) by three cycles of freezing and thawing. The protein concentration of samples was determined by using a BioRad Bradford protein assay kit (BioRad). Ten micrograms of cytosolic extracts were added to caspase assay buffer (312.5 mM HEPES, pH 7.5, 31.25% sucrose, 0.3125% CHAPS) with Z-DEVD-AFC as substrates (CalBiochem, San Diego, Calif.). Release of 7-amido-4-(trifluoromethyl)coumarin (AFC) was quantified, after 2 hours of incubation at 37° C. (or, in the case of time course experiment, every 10 minutes), using a Fluoroskan system (Thermo-Labsystems, Helsinki, Finland) set to an excitation value of 355 nm and emission value of 525 nm. The results were expressed as relative fluorescence unit (R.F.U.) per microgram of protein.

For assay [3], the system named is MCL1. Description: Western blot of intracellular MCL1 concentration in U2OS cells overexpressing Fortilin. The assay is classed as cell-based. The note with it: U2OS stable transfectants, compared with control or wild type transfectants. For orientation: Immunoblotting shows a protein as a band on a membrane.

Sequence of Bax (Q07812 whole entry, species assumed): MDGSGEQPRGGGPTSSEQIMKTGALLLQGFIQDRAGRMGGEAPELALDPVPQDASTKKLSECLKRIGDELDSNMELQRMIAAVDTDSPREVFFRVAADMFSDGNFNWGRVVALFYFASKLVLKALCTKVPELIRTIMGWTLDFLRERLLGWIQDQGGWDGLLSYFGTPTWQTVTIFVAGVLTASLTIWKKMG
Sequence of Bcl-xL (Q07817 whole entry, species assumed): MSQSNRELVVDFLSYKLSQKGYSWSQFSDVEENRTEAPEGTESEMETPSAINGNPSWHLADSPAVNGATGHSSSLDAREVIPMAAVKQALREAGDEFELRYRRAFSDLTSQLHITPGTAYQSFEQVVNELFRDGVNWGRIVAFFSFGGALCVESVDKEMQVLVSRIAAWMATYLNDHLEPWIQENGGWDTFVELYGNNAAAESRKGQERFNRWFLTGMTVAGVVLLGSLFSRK
Sequence of p53 (P04637 whole entry, species assumed): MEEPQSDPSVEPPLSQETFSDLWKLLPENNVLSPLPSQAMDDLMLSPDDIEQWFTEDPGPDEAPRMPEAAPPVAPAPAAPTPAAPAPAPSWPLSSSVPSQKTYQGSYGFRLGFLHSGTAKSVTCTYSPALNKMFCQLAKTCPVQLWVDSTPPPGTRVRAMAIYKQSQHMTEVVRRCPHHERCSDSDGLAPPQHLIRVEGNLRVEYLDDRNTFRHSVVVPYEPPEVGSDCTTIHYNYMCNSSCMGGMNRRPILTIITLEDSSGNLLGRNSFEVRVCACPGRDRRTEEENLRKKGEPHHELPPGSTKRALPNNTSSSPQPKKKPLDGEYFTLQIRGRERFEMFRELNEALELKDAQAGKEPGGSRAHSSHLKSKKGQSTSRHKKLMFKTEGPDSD

As to “Fortilin: 172 amino acid anti-apoptotic polypeptide (SEQ ID NO:2), overexpressed from expression constructs or used as recombinant/in vitro translated protein”, the “prevention of Etoposide-induced apoptosis (apoptotic index)” value in the assay with HeLa cells (HeLa cells overexpressing FLAG-tagged protein, 5 μg/mL etoposide 12 hours) was “prevented HeLa cells from undergoing Etoposide-induced apoptosis in a statistically significant fashion; also recorded: as strong an anti-apoptotic effect as that of Bcl-xL and MCL1”. For the same substance, in the assay with HeLa cells (HeLa cells, various amounts of pFLAG-Fortilin, etoposide challenge), the “apoptotic index versus amount of Fortilin expressed” value is listed as “more prominent anti-apoptotic effects”. In addition, the “co-immunoprecipitation of p53 with Fortilin in vitro” value with p53 is on record as “co-immunoprecipitated with Fortilin in vitro”. In addition, in the assay with MCL1 [1], the “co-precipitation of MCL1 with Fortilin in vitro” value is reported as “co-precipitated with Fortilin”. The “co-immunoprecipitation of Bcl-xL with Fortilin in vitro” value with Bcl-xL is recorded as “not Bcl-xL”. Also, in [2] (twenty-four hours after transfection), the “inhibition of p53 transactivation of Bax gene (luciferase normalized to β-galactosidase)” value is on record as “inhibited p53 transactivation of the Bax gene”. Moreover, the “inhibitory effect on p53 transactivation of Bax gene versus amount of Fortilin transfected” value in [2] (various amount of Fortilin-pFLAG) is “stronger inhibitory effects on p53 transactivation of the Bax gene; also recorded: larger inhibitory effect on p53 transactivation of Bax gene”. Further, the “co-immunoprecipitation of Bak with Fortilin in vitro” value with Bak is given as “not”. Also, the “co-immunoprecipitation of Bax with Fortilin in vitro” value with Bax is “not”. For the same substance, the “inhibition of caspase-3-like activity, kinetics” value in the assay with caspase 3-like activity (U2OS cells, 10 μg/mL etoposide, signals every 10 minutes for 2 hours) is “significantly inhibited the caspase-3-like activity in U2OS cells at all time points”. Further, the “inhibition of caspase-3-like activity upon etoposide challenge” value in the assay on caspase 3-like activity (U2OS cells, etoposide 10 μg/mL 48 hours, vs empty vector) is reported as “significantly inhibited the caspase-3-like activity in U2OS cells”. Further, the caspase-3-like activity with caspase 3-like activity (U2OS stably expressing Fortilin (U2OS.F), absence of etoposide challenge (DMSO)) turned out to be 283±22.6 R.F.U./μg protein. This substance displayed a caspase-3-like activity index in the assay on caspase 3-like activity (U2OS stably expressing Fortilin (U2OS.F), etoposide 10 μg/mL 48 hours) of 713.9±62.6 R.F.U./μg protein. Further, in the assay with MCL1 [3], the “expression levels of MCL1 (MCL1 Expression Index)” value is reported as “similar”.
